Data set [1] concerns the target T1, Poly [ADP-ribose] polymerase 1 (Homo sapiens, UniProt P09874). Nature of the data set: Inhibition of PARP1 (unknown origin) at 1 nM preincubated with compound for 10 mins followed by DNA and NAD+ addition and measured after 60 mins by chemiluminescence based envision reader analysis relative to control. To be noted: time 70.0 min.
In data set [2] the test system is MDA-MB-436. Kind of data set: Antiproliferative activity against human MDA-MB-436 cells assessed as inhibition of cell proliferation at 100 nM incubated for 7 days by CCK-8 assay relative to control. It counts as functional. To be noted: MDA-MB-436, 168 h, time 7 day.
Data set [3] has as its system MDA-MB-436. Kind of data set: Antiproliferative activity against human MDA-MB-436 cells assessed as reduction in cell viability incubated for 7 days by CCK-8 assay. Type of data set: functional, cell-based. To be noted: MDA-MB-436, 168 h.
The target in data set [4] is T2, Poly [ADP-ribose] polymerase 2 (Homo sapiens, UniProt Q9UGN5). Kind of data set: Inhibition of PARP2 (unknown origin) at 1 uM preincubated with compound for 10 mins followed by DNA and NAD+ addition and measured after 60 mins by chemiluminescence based envision reader analysis relative to control. To be noted: time 70.0 min.
T2 sequence (Q9UGN5 whole entry): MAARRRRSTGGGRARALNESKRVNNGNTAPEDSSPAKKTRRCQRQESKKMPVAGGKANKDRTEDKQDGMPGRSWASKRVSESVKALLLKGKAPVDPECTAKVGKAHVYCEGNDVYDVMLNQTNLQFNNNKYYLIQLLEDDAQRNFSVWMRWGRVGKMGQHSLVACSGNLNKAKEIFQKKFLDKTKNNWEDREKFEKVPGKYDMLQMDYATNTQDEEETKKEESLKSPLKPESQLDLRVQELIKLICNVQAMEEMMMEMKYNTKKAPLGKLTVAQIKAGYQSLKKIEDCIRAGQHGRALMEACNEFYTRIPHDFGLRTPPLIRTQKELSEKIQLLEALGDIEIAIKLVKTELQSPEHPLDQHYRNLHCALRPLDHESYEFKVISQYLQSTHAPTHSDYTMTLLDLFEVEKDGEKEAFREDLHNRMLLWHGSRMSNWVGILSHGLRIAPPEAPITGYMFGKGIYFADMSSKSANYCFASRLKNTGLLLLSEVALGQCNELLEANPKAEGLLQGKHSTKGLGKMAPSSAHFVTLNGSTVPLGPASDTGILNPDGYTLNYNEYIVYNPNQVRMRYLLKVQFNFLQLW
Data set [5] addresses T2, Poly [ADP-ribose] polymerase 2. Nature of the data set: Inhibition of PARP2 (unknown origin) preincubated with compound for 10 mins followed by DNA and NAD+ addition and measured after 60 mins by chemiluminescence based envision reader analysis.
The target in data set [6] is T1, Poly [ADP-ribose] polymerase 1. Nature of the data set: Inhibition of PARP1 (unknown origin) preincubated with compound for 10 mins followed by DNA and NAD+ addition and measured after 60 mins by chemiluminescence based envision reader analysis.
A short description of data set [7]: Cmax in male Balb/c mouse at 1 mg/kg, po measured upto 96 hrs by LC-MS/MS analysis. It counts as ADME, organism-based. To be noted: in vivo.
The nature of data set [8]: Clearance in male Balb/c mouse at 1 mg/kg, po measured upto 96 hrs by LC-MS/MS analysis. Type of data set: ADME, organism-based. To be noted: male, Balb/c, in vivo.
Data set [9] is described as follows: AUC(0 to t) in male Balb/c mouse at 1 mg/kg, po measured upto 96 hrs by LC-MS/MS analysis. Type of data set: ADME, organism-based. To be noted: male, Balb/c, in vivo.
Data set [10] is described as follows: Half life in male Balb/c mouse at 1 mg/kg, po measured upto 96 hrs by LC-MS/MS analysis. Type of data set: ADME, organism-based. To be noted: male, Balb/c, in vivo.

Each structure is given as a SMILES string.

T1 sequence (P09874 whole entry): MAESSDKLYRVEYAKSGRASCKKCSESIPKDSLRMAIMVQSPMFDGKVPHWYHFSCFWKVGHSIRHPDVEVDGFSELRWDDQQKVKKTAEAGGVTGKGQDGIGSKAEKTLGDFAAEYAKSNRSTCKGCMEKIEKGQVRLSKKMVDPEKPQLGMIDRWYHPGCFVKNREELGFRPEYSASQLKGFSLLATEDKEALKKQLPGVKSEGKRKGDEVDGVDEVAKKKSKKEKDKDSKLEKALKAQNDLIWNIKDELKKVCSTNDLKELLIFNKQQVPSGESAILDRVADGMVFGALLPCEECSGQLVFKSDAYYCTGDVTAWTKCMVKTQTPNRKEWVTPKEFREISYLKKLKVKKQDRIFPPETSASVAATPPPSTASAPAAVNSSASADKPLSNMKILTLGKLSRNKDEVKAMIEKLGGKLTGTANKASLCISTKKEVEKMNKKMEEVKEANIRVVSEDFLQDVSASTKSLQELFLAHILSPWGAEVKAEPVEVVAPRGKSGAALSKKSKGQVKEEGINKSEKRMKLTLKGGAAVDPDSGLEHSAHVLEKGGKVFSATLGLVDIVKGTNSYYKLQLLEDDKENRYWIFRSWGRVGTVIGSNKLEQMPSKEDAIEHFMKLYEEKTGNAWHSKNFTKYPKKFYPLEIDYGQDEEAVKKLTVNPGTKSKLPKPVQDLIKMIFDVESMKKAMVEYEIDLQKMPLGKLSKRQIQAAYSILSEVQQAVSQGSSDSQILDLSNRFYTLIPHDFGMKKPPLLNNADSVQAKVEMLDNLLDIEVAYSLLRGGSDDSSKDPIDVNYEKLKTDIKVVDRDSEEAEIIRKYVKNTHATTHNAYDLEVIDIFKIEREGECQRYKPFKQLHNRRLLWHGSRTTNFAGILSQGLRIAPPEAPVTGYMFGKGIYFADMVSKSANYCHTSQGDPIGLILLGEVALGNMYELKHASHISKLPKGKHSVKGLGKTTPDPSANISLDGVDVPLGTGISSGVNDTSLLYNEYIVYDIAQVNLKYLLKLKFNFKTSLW

Regarding `CCc1cc2ncc(CN3CC=C(c4cnc(C(=O)NC)nc4)CC3)cc2[nH]c1=O`, the inhibition in data set [1] amounted to 47.1%. The inhibition at 0.1 µM in the data set on MDA-MB-436 [2] came out at 52.6%. Besides, in the data set on MDA-MB-436 [3], the IC50 is 29.1 nM.
In the case of `CCc1cc2ncc(CN3CC=C(c4cnc(F)c(F)c4)CC3)cc2[nH]c1=O`, the figures for the inhibition in data set [1] and in data set [4] were 72.3% and 77.3%, respectively. In the data set with MDA-MB-436 [2], the inhibition at 0.1 µM is 37.7%.
`CCc1cc2ncc(CN3CC=C(c4ccc(C(=O)NC)nc4OC)CC3)cc2[nH]c1=O`: in [1], the inhibition was determined as 38.8%. For the same molecule, in the data set on MDA-MB-436 [2], the inhibition at 0.1 µM was 31.3%.
For `CCc1cc2ncc(CN3CC=C(c4cc(C)c(F)c(C)c4)CC3)cc2[nH]c1=O`, the inhibition in data set [1] is -3.8%. Moreover, in the data set on MDA-MB-436 [2], the inhibition at 0.1 µM is 23.6%.
On the same counts, the results for `CCc1cc2ncc(CN3CC=C(c4ccc(OC)nc4C)CC3)cc2[nH]c1=O` are 40.9% and 24%.
As for `CNC(=O)c1ccc(N2CCN(Cc3cnc4cc(C)c(=O)[nH]c4c3)CC2)c(F)n1`, the values for the inhibition in data set [1] and in [4] were 75% and 98.3%, respectively. For the same molecule, the concentration for half-maximal inhibition (IC50) in [5] turned out to be 19 nM; with MDA-MB-436 [3], 114 nM; in data set [6], 0.32 nM.
Consider `CCc1cc2ncc(CN3CC=C(c4ccc(C#N)c(F)c4F)CC3)cc2[nH]c1=O`, for which, in data set [1], the inhibition came to 54.7%. Besides, in the data set on MDA-MB-436 [2], the inhibition at 0.1 µM was determined as 45.1%.
As to `CCc1cc2ncc(CN3CC=C(c4ccc(C#N)cc4F)CC3)cc2[nH]c1=O`, the inhibition was determined as 96.9% in data set [1] and 92.3% in [4]. The 50% inhibitory concentration (IC50) worked out at 62 nM in data set [5], 5.3 nM in the data set with MDA-MB-436 [3] and 0.17 nM in [6].
Consider `CCc1cc2ncc(CN3CCN(c4ccc(C(=O)NC)nc4F)CC3)cc2[nH]c1=O`, for which the inhibition in data set [1] was 95.2%; in [4] it was 93.8%. The IC50 in data set [5] was found to be 88 nM; in the data set on MDA-MB-436 [3], 2.8 nM; in data set [6], 0.65 nM.
With `CCc1cc2ncc(CN3CCN(c4cc(F)c(C#N)cn4)CC3)cc2[nH]c1=O`, the Cmax in data set [7] was 2250 ng/mL. For the same molecule, the IC50 in the data set on MDA-MB-436 [3] came to 1.9 nM. The molecule further showed an apparent clearance CL/F in [8] of 1 mL/min/kg. In [9], the area under the curve AUC(0-t) at 96 h was found to be 16000 ng·h/mL. The same molecule had a half-life in data set [10] of 6.3 h.
As to `CCc1cc2ncc(CN3CC=C(c4ccc(C)c(F)c4)CC3)cc2[nH]c1=O`, the inhibition in data set [1] turned out to be 54.4%. The inhibition at 0.1 µM with MDA-MB-436 [2] is 28.2%.
For `CCc1cc2ncc(CN3CC=C(c4ccncc4C#N)CC3)cc2[nH]c1=O`, the inhibition in data set [1] was 13.7%. Also, the inhibition at 0.1 µM in the data set on MDA-MB-436 [2] was determined as 9.8%.
Take `CCc1cc2ncc(CN3CC=C(c4ccc(C#N)s4)CC3)cc2[nH]c1=O`: the inhibition in [1] was 46.2%. For the same molecule, the inhibition at 0.1 µM in the data set on MDA-MB-436 [2] was determined as 45%.
Turning to `CCc1cc2ncc(CN3CCN(c4ccc(C(=O)NC)nc4F)CC3)c(F)c2[nH]c1=O`, the IC50 with MDA-MB-436 [3] amounted to 43.1 nM.
Still for that read-out and setting: as for `CCc1cc2ncc(CN3CCN(c4ccc([N+](=O)[O-])cc4F)CC3)cc2[nH]c1=O`, the figure is 1.8 nM.
Take `CCc1cc2ncc(CN3CC=C(c4cc(F)c(C#N)cn4)CC3)cc2[nH]c1=O`: the highest concentration (Cmax) in data set [7] amounted to 3020 ng/mL. Further, the inhibition in [1] came out at 88.6%; in [4], 87.4%. Besides, the figures for the half-maximal inhibitory concentration (IC50) (in data set [5]; in the data set on MDA-MB-436 [3]; in data set [6]) were 130 nM, 2.8 nM and 0.28 nM, respectively. Besides, the apparent clearance (CL/F) in [8] was 1 mL/min/kg. Besides, the exposure AUC(0-t) at 96 h in data set [9] was 16400 ng·h/mL. The same molecule gave a half-life in data set [10] of 5.26 h.
On to `CCc1cc2ncc(CN3CC=C(c4ncc(C#N)cc4C)CC3)cc2[nH]c1=O`, for which the inhibition in data set [1] is 15.9%. Also, in the data set with MDA-MB-436 [2], the inhibition at 0.1 µM is -10.9%.
Take `CCc1cc2ncc(CN3CC=C(c4ccc(C(F)(F)F)nc4)CC3)cc2[nH]c1=O`: the inhibition in data set [1] is 56.9%; in data set [4] it was 82.3%. Besides, in the data set with MDA-MB-436 [2], the inhibition at 0.1 µM is -4.1%.
For `CCc1cc2ncc(CN3CC=C(c4cnc(C#N)cn4)CC3)cc2[nH]c1=O`, the inhibition in data set [1] stood at 45.8%. The inhibition at 0.1 µM in the data set with MDA-MB-436 [2] stood at 47.5%.
As to `CCc1cc2ncc(CN3CC=C(c4ccc(F)cn4)CC3)cc2[nH]c1=O`, the figures for the inhibition in data set [1] and in data set [4] were 91.4% and 93.9%, respectively. The 50% inhibitory concentration (IC50) worked out at 65 nM in data set [5], 6.5 nM with MDA-MB-436 [3] and 0.28 nM in [6].
`CNC(=O)c1ccc(N2CCN(Cc3cnc4cc(C5CC5)c(=O)[nH]c4c3)CC2)c(F)n1`: the IC50 in the data set on MDA-MB-436 [3] is 4.1 nM.
On to `CCc1cc2ncc(CN3CC=C(c4cc(F)c(C#N)c(F)c4)CC3)cc2[nH]c1=O`, for which the inhibition in [1] is 31.3%. Besides, the inhibition at 0.1 µM in the data set on MDA-MB-436 [2] came to 51.9%. Moreover, in the data set with MDA-MB-436 [3], the IC50 turned out to be 16.3 nM.
Regarding `CCc1cc2ncc(CN3CC=C(c4cccnc4N)CC3)cc2[nH]c1=O`, the inhibition in data set [1] worked out at 56.5%. Besides, the inhibition at 0.1 µM in the data set with MDA-MB-436 [2] amounted to 14.4%.
With `CCc1cc2ncc(CN3CC=C(c4ccc(N)nc4)CC3)cc2[nH]c1=O`, the inhibition in data set [1] is 10%. Moreover, the inhibition at 0.1 µM in the data set on MDA-MB-436 [2] came out at 31.1%.
With `CCc1cc2ncc(CN3CC=C(c4cnc5ccnn5c4)CC3)cc2[nH]c1=O`, the inhibition in data set [1] turned out to be 46.3%. Besides, in the data set with MDA-MB-436 [2], the inhibition at 0.1 µM stood at 13.6%.
On the same counts, the results for `CCc1cc2ncc(CN3CC=C(c4ncccc4C(=O)NC)CC3)cc2[nH]c1=O` are 15% and 26.7%.
As to `CCc1cc2ncc(CN3CC=C(c4ccc(C(=O)NC)nc4N)CC3)cc2[nH]c1=O`, the inhibition in data set [1] was determined as 27.2%. Further, the inhibition at 0.1 µM in the data set with MDA-MB-436 [2] is 19.5%.
On to `CCc1cc2ncc(CN3CC=C(c4ccc([N+](=O)[O-])cc4F)CC3)cc2[nH]c1=O`, for which the inhibition in data set [1] was 72.1%; in data set [4], 98.1%. Moreover, the values for the 50% inhibitory concentration (IC50) (in data set [5]; with MDA-MB-436 [3]; in data set [6]) were 37 nM, 25.7 nM and 0.47 nM, respectively.
Turning to `CCc1cc2ncc(CN3CC=C(c4ccc(C#N)cc4)CC3)cc2[nH]c1=O`, the inhibition was found to be 75.6% in [1] and 91.7% in data set [4]. Further, in the data set with MDA-MB-436 [2], the inhibition at 0.1 µM is 37.9%.
For the molecule `CCc1cc2ncc(CN3CC=C(c4ccc(C)cc4F)CC3)cc2[nH]c1=O`, the figures for the inhibition in [1] and in [4] were 61.7% and 75.4%, respectively. In addition, in the data set on MDA-MB-436 [2], the inhibition at 0.1 µM is 5%.
As for `CCc1cc2ncc(CN3CC=C(c4ccc(C(=O)NC)c(F)c4F)CC3)cc2[nH]c1=O`, the inhibition in data set [1] was 46.1%. For the same molecule, in the data set with MDA-MB-436 [2], the inhibition at 0.1 µM stood at 16.1%.
On to `CCc1cc2ncc(CN3CC=C(c4ccccc4C#N)CC3)cc2[nH]c1=O`, for which the inhibition in data set [1] is 51.6%. Moreover, the inhibition at 0.1 µM in the data set on MDA-MB-436 [2] turned out to be 44.8%.
Regarding `CCc1nc2ccc(CN3CCN(c4ccc(C(=O)NC)nc4F)CC3)c(F)c2[nH]c1=O`, in the data set with MDA-MB-436 [3], the half-maximal inhibitory concentration (IC50) amounted to 87.1 nM.
With `CCc1cc2ncc(CN3CC=C(c4cc(F)c(C)c(F)c4)CC3)cc2[nH]c1=O`, in data set [1], the inhibition turned out to be 27.5%. The inhibition at 0.1 µM in the data set with MDA-MB-436 [2] was 22.2%.
On the same counts, the results for `CCc1cc2ncc(CN3CC=C(c4c(F)cc(C#N)cc4F)CC3)cc2[nH]c1=O` are 10.5% and 16.3%.
In the case of `CCc1cc2ncc(CN3CCN(c4ccc(C#N)cc4F)CC3)cc2[nH]c1=O`, in the data set on MDA-MB-436 [3], the IC50 amounted to 4.1 nM.
For `CCc1cc2ncc(CN3CC=C(c4ccc(F)c(C)c4)CC3)cc2[nH]c1=O`, the inhibition in data set [1] amounted to 46.6%. The inhibition at 0.1 µM with MDA-MB-436 [2] was 30.2%.
Take `CCc1cc2ncc(CN3CC=C(c4ncccc4C#N)CC3)cc2[nH]c1=O`: in data set [1], the inhibition was -9.3%. Moreover, in the data set with MDA-MB-436 [2], the inhibition at 0.1 µM worked out at 5.9%.
On to `CCc1cc2ncc(CN3CC=C(c4cnccc4C(=O)NC)CC3)cc2[nH]c1=O`, for which the inhibition in [1] stood at 7.4%. For the same molecule, the inhibition at 0.1 µM in the data set with MDA-MB-436 [2] worked out at 18.5%.
Turning to `CCc1cc2ncc(CN3CC=C(c4ncc(C(=O)NC)nc4C)CC3)cc2[nH]c1=O`, the inhibition in data set [1] was 77.2%; in data set [4] it was 85.4%. The inhibition at 0.1 µM in the data set with MDA-MB-436 [2] is 41.1%.

(Values after ChEMBL document CHEMBL6096703 (J Med Chem, 2025).)
